In PubChem BioAssay (NCI):
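Compound exposure: 48 hours, 5 concentrations, 96-well plates. GI50 = concentration required for 50% inhibition of growth. TGI: concentration producing complete growth inhibition.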

Tests used:
Assay in all cases: NCI-60 cell line screen, 48 h
786-0 renal = system: 786-0 renal
A549 NSCLC = system: A549 NSCLC
ACHN renal = system: ACHN renal
BT-549 breast = system: BT-549 breast
CAKI-1 renal = system: CAKI-1 renal
CCRF-CEM leukemia = system: CCRF-CEM leukemia
DU-145 prostate = system: DU-145 prostate
EKVX NSCLC = system: EKVX NSCLC
HCC-2998 colon = system: HCC-2998 colon
HCT-15 colon = system: HCT-15 colon
HL-60(TB) leukemia = system: HL-60(TB) leukemia
HOP-62 NSCLC = system: HOP-62 NSCLC
HOP-92 NSCLC = system: HOP-92 NSCLC
HT29 colon = system: HT29 colon
IGROV1 ovarian = system: IGROV1 ovarian
K-562 leukemia = system: K-562 leukemia
KM12 colon = system: KM12 colon
LOX IMVI melanoma = system: LOX IMVI melanoma
M14 melanoma = system: M14 melanoma
MDA-MB-231 breast = system: MDA-MB-231 breast
MDA-MB-435 = system: MDA-MB-435
MOLT-4 leukemia = system: MOLT-4 leukemia
NCI-H226 lung = system: NCI-H226 lung
NCI-H23 lung = system: NCI-H23 lung
NCI-H460 lung = system: NCI-H460 lung
NCI-H522 lung = system: NCI-H522 lung
NCI/ADR-RES ovarian = system: NCI/ADR-RES ovarian
OVCAR-3 ovarian = system: OVCAR-3 ovarian
OVCAR-4 ovarian = system: OVCAR-4 ovarian
OVCAR-5 ovarian = system: OVCAR-5 ovarian
OVCAR-8 ovarian = system: OVCAR-8 ovarian
PC-3 prostate = system: PC-3 prostate
RPMI-8226 leukemia = system: RPMI-8226 leukemia
RXF 393 renal = system: RXF 393 renal
SF-268 CNS = system: SF-268 CNS
SF-295 CNS = system: SF-295 CNS
SF-539 CNS = system: SF-539 CNS
SK-MEL-2 melanoma = system: SK-MEL-2 melanoma
SK-MEL-28 melanoma = system: SK-MEL-28 melanoma
SK-MEL-5 melanoma = system: SK-MEL-5 melanoma
SK-OV-3 ovarian = system: SK-OV-3 ovarian
SN12C renal = system: SN12C renal
SNB-19 CNS = system: SNB-19 CNS
SNB-75 CNS = system: SNB-75 CNS
SR leukemia = system: SR leukemia
TK-10 renal = system: TK-10 renal
U251 CNS = system: U251 CNS
UACC-257 melanoma = system: UACC-257 melanoma
UACC-62 melanoma = system: UACC-62 melanoma
UO-31 renal = system: UO-31 renal
COLO 205 colon = system: COLO 205 colon
HS 578T breast = system: HS 578T breast
MCF7 breast = system: MCF7 breast
SW-620 colon = system: SW-620 colon
T-47D breast = system: T-47D breast

CN(C)CCN=Cc1c2ccccc2c(=O)n2c1oc1ccccc12
GI50 (786-0 renal): 11.6 µM | TGI (786-0 renal): 25.3 µM | GI50 (A549 NSCLC): 4.13 µM | TGI (A549 NSCLC): 20.7 µM | GI50 (ACHN renal): 2.63 µM | TGI (ACHN renal): 11.2 µM | GI50 (BT-549 breast): 7.61 µM | TGI (BT-549 breast): 21.1 µM | GI50 (CAKI-1 renal): 3.62 µM | TGI (CAKI-1 renal): 15.2 µM | GI50 (CCRF-CEM leukemia): 4.36 µM | TGI (CCRF-CEM leukemia): 62.8 µM | GI50 (DU-145 prostate): 2.97 µM | TGI (DU-145 prostate): 14.5 µM | GI50 (EKVX NSCLC): 6.76 µM | TGI (EKVX NSCLC): 21.4 µM | GI50 (HCC-2998 colon): 12.2 µM | TGI (HCC-2998 colon): 24.6 µM | GI50 (HCT-15 colon): 5.37 µM | TGI (HCT-15 colon): 22.1 µM | GI50 (HL-60(TB) leukemia): 10.9 µM | TGI (HL-60(TB) leukemia): 55 µM | GI50 (HOP-62 NSCLC): 12.1 µM | TGI (HOP-62 NSCLC): 26.7 µM | GI50 (HOP-92 NSCLC): 12.3 µM | TGI (HOP-92 NSCLC): 44.1 µM | GI50 (HT29 colon): 4.56 µM | TGI (HT29 colon): 19.4 µM | GI50 (IGROV1 ovarian): 10.6 µM | TGI (IGROV1 ovarian): 27.6 µM | GI50 (K-562 leukemia): 11 µM | TGI (K-562 leukemia): > 100 µM | GI50 (KM12 colon): 8.8 µM | TGI (KM12 colon): 21.7 µM | GI50 (LOX IMVI melanoma): 4.18 µM | TGI (LOX IMVI melanoma): 16.1 µM | GI50 (M14 melanoma): 15.2 µM | TGI (M14 melanoma): 31.2 µM | GI50 (MDA-MB-231 breast): 12.5 µM | TGI (MDA-MB-231 breast): 29 µM | GI50 (MDA-MB-435): 10.1 µM | TGI (MDA-MB-435): 21.7 µM | GI50 (MOLT-4 leukemia): 4.2 µM | TGI (MOLT-4 leukemia): > 100 µM | GI50 (NCI-H226 lung): 10 µM | TGI (NCI-H226 lung): 36.7 µM | GI50 (NCI-H23 lung): 10.5 µM | TGI (NCI-H23 lung): 23 µM | GI50 (NCI-H460 lung): 2.94 µM | TGI (NCI-H460 lung): 11.7 µM | GI50 (NCI-H522 lung): 16.5 µM | TGI (NCI-H522 lung): 38 µM | GI50 (NCI/ADR-RES ovarian): 13.7 µM | TGI (NCI/ADR-RES ovarian): 32.6 µM | GI50 (OVCAR-3 ovarian): 11.7 µM | TGI (OVCAR-3 ovarian): 24 µM | GI50 (OVCAR-4 ovarian): 18.4 µM | TGI (OVCAR-4 ovarian): 51.6 µM | GI50 (OVCAR-5 ovarian): 15.7 µM | TGI (OVCAR-5 ovarian): 30.5 µM | GI50 (OVCAR-8 ovarian): 5.89 µM | TGI (OVCAR-8 ovarian): 21.5 µM | GI50 (PC-3 prostate): 11.5 µM | TGI (PC-3 prostate): 29.9 µM | GI50 (RPMI-8226 leukemia): 11.3 µM | TGI (RPMI-8226 leukemia): > 100 µM | GI50 (RXF 393 renal): 12.7 µM | TGI (RXF 393 renal): 28.6 µM | GI50 (SF-268 CNS): 5.56 µM | TGI (SF-268 CNS): 20 µM | GI50 (SF-295 CNS): 2.89 µM | TGI (SF-295 CNS): 9.71 µM | GI50 (SF-539 CNS): 2.96 µM | TGI (SF-539 CNS): 8.81 µM | GI50 (SK-MEL-2 melanoma): 16.6 µM | TGI (SK-MEL-2 melanoma): 48.2 µM | GI50 (SK-MEL-28 melanoma): 10.5 µM | TGI (SK-MEL-28 melanoma): 23.1 µM | GI50 (SK-MEL-5 melanoma): 2.89 µM | TGI (SK-MEL-5 melanoma): 16.1 µM | GI50 (SK-OV-3 ovarian): 8.44 µM | TGI (SK-OV-3 ovarian): 24.3 µM | GI50 (SN12C renal): 3.81 µM | TGI (SN12C renal): 17.1 µM | GI50 (SNB-19 CNS): 7.45 µM | TGI (SNB-19 CNS): 21.4 µM | GI50 (SNB-75 CNS): 7.55 µM | TGI (SNB-75 CNS): 22.2 µM | GI50 (SR leukemia): 3.7 µM | TGI (SR leukemia): > 100 µM | GI50 (TK-10 renal): 3.44 µM | TGI (TK-10 renal): 14 µM | GI50 (U251 CNS): 7.4 µM | TGI (U251 CNS): 21 µM | GI50 (UACC-257 melanoma): 14.2 µM | TGI (UACC-257 melanoma): 30.5 µM | GI50 (UACC-62 melanoma): 10.8 µM | TGI (UACC-62 melanoma): 23.6 µM | GI50 (UO-31 renal): 6.67 µM | TGI (UO-31 renal): 28.6 µM

CC1(C)C[C@H]2C=C(C=O)[C@]34C[C@]3(C(=O)OC4O)[C@H]2C1 (stereo partly specified)
TGI (A549 NSCLC): 13.1 µM | TGI (ACHN renal): 8.07 µM | TGI (BT-549 breast): 4.56 µM | TGI (CAKI-1 renal): 5.04 µM | TGI (CCRF-CEM leukemia): > 100 µM | TGI (COLO 205 colon): 1.44 µM | TGI (DU-145 prostate): 16.5 µM | TGI (EKVX NSCLC): 4.34 µM | TGI (HCC-2998 colon): 12.3 µM | TGI (HCT-15 colon): 4.7 µM | TGI (HOP-62 NSCLC): 45.1 µM | TGI (HS 578T breast): > 100 µM | TGI (HT29 colon): 4.96 µM | TGI (IGROV1 ovarian): 9.75 µM | TGI (K-562 leukemia): > 100 µM | TGI (KM12 colon): 5.6 µM | TGI (MCF7 breast): 5.54 µM | TGI (MDA-MB-231 breast): 6.47 µM | TGI (MOLT-4 leukemia): > 100 µM | TGI (NCI-H226 lung): 26.9 µM | TGI (NCI-H460 lung): 53.4 µM | TGI (OVCAR-3 ovarian): 8.47 µM | TGI (OVCAR-4 ovarian): 7.86 µM | TGI (OVCAR-5 ovarian): 5.14 µM | TGI (OVCAR-8 ovarian): 3.67 µM | TGI (PC-3 prostate): 8.74 µM | TGI (RPMI-8226 leukemia): > 100 µM | TGI (SF-295 CNS): 23.9 µM | TGI (SK-MEL-28 melanoma): 9.4 µM | TGI (SK-MEL-5 melanoma): 9.32 µM | TGI (SK-OV-3 ovarian): 50.3 µM | TGI (SN12C renal): > 100 µM | TGI (SNB-19 CNS): > 100 µM | TGI (SNB-75 CNS): 6.87 µM | TGI (SR leukemia): > 100 µM | TGI (SW-620 colon): > 100 µM | TGI (T-47D breast): 4.63 µM | TGI (TK-10 renal): 4.53 µM | TGI (U251 CNS): 51.7 µM | TGI (UO-31 renal): 6.92 µM

COc1cc2nc(N3CCN(C(=O)c4ccco4)CC3)nc(N)c2cc1OC
TGI (NCI-H23 lung): 27.1 µM
